Reference: patent US5250540A, “Aminomethyl-substituted 2,3-dihydropyrano[2,3-b]pyridines and their use in medicaments” (Bayer Aktiengesellschaft, priority 1991, dated 1993)
Structures can show the parent of a compound that is named as a salt.

Molecular target: 5-HT1-receptor (5-hydroxytryptamine receptors of subtype 1)
Assay: receptor binding studies using preparations of calf hippocampus membranes, radioligand 3H-serotonin
Settings: ^3 H-serotonin as radioactively labelled ligand
Excerpt: In Table 1 the high affinity of the compounds according to the invention for 5-hydroxytryptamine receptors of subtype 1 is exemplified. The values given relate to data obtained from receptor binding studies using preparations of calf hippocampus membranes. The radioactively labelled ligand used for this was ^3 H-serotonin.

Ki: 1 nM
SMILES: O=C1c2ccccc2S(=O)(=O)N1CCCCNCC1CCc2cccnc2O1 (stereo not shown) [Example 4, 2-N-(4-Butylsaccharinyl)-aminomethyl-2,3-dihydropyrano2,3-b]pyridine HCl salt]
